From BindingDB's records for PubMed 20126400 (University of Oklahoma, 2010) come the findings set out here.

Molecules are shown by their SMILES.

What all share (assay): Ray2010 Assay 74
Test [1] deals with 5-hydroxytryptamine receptor 1E (Homo sapiens, UniProt P28566). The source says:
(§1) Table S2 shows raw Ki data for the current study combined with data collected from the literature for the ten additional compounds.

Test [2] addresses 5-hydroxytryptamine receptor 2A (Homo sapiens, UniProt P28223).
Description: as §1

The target of test [3] is T1, Alpha-2A adrenergic receptor (Homo sapiens, UniProt P08913).
T1 sequence (P08913 whole entry): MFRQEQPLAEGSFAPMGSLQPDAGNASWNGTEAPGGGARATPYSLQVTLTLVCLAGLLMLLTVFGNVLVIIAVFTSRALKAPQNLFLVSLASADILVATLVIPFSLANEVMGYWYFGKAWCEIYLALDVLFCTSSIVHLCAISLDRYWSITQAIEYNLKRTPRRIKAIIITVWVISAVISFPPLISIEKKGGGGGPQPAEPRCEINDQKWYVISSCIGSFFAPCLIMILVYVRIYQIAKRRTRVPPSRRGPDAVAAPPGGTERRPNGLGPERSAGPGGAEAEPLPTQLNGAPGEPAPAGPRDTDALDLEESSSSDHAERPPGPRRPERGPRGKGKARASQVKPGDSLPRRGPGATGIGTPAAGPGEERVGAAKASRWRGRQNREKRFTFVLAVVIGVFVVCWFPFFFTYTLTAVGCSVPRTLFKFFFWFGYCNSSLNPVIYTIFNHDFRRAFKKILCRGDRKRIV
Description: as §1

Test [4] deals with Histamine H2 receptor (Homo sapiens, UniProt P25021).
Sequence of Histamine H2 receptor (P25021 whole entry): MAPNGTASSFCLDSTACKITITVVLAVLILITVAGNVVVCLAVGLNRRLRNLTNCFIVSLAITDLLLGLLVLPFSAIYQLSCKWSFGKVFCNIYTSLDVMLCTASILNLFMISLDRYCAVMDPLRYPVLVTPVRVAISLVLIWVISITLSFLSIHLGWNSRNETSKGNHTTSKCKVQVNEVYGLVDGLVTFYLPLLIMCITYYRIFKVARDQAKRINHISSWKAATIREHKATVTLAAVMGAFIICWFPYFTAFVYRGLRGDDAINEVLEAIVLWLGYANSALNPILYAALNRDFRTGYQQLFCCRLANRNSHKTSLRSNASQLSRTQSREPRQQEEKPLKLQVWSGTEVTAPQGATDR
Description: as §1

Test [5] has as its target Kappa-type opioid receptor (Homo sapiens, UniProt P41145).
Description: as §1

Test [6] addresses T2, 5-hydroxytryptamine receptor 1A (Homo sapiens, UniProt P08908).
T2 sequence (P08908 whole entry): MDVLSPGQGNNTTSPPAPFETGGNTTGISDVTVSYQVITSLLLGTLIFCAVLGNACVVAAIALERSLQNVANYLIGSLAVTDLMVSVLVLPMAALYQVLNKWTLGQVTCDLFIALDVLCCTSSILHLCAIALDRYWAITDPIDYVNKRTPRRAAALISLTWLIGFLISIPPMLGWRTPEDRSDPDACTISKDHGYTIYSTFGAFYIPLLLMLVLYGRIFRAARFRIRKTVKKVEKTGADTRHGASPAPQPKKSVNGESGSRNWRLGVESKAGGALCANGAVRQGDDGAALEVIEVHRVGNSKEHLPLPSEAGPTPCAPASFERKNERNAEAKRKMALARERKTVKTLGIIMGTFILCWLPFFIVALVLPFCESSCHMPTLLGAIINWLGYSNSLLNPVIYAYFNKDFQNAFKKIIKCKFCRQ
Description: as §1

The target in test [7] is T3, Muscarinic acetylcholine receptor M5 (Homo sapiens, UniProt P08912).
T3 sequence (P08912 whole entry): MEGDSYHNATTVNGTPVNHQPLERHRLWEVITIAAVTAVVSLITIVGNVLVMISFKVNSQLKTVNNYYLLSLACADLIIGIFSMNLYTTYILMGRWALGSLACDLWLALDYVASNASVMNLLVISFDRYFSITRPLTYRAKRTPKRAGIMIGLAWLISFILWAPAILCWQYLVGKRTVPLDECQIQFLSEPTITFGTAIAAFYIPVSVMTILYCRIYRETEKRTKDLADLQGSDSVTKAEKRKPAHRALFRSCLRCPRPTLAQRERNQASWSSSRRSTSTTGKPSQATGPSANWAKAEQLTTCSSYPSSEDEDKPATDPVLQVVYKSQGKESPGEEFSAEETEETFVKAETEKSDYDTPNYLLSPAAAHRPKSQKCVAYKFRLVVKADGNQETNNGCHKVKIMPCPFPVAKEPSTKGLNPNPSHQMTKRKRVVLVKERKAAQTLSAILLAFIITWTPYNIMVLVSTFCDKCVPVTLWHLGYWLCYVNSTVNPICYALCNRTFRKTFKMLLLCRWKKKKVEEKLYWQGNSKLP
Description: as §1

In test [8] the target is D(1A) dopamine receptor (Homo sapiens, UniProt P21728).
Sequence of D(1A) dopamine receptor (P21728 whole entry): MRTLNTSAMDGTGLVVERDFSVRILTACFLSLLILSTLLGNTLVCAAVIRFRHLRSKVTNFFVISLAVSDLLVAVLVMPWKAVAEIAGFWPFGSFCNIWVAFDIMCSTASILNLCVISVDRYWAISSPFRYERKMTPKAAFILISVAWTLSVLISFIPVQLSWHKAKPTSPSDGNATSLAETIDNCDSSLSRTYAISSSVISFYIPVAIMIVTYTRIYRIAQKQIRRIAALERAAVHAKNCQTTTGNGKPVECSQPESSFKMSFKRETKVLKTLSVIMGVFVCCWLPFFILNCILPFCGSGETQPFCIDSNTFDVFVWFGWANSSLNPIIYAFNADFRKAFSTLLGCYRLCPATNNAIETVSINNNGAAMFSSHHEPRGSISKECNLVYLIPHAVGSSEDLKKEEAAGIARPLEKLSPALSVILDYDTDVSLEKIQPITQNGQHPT
Description: as §1

Test [9] has as its target Sodium-dependent dopamine transporter (Homo sapiens, UniProt Q01959).
Description: as §1

Test [10] has as its target T4, Gamma-aminobutyric acid receptor subunit alpha-1 (Homo sapiens, UniProt P14867).
T4 sequence (P14867 whole entry): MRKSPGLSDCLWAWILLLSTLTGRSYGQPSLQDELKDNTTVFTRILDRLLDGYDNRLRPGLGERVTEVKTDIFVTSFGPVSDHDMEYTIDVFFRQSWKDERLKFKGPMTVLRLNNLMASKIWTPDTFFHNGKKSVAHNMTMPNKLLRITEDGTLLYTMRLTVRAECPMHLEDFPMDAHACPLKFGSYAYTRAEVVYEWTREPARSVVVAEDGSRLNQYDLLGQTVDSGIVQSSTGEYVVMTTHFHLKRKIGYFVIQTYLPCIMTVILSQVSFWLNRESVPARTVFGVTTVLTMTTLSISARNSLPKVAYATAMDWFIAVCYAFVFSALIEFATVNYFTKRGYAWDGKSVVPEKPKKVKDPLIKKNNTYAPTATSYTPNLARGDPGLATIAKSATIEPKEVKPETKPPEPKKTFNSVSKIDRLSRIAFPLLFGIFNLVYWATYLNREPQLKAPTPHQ
Description: as §1

Test [11] has as its target T5, Alpha-1A adrenergic receptor (Homo sapiens, UniProt P35348).
T5 sequence (P35348 whole entry): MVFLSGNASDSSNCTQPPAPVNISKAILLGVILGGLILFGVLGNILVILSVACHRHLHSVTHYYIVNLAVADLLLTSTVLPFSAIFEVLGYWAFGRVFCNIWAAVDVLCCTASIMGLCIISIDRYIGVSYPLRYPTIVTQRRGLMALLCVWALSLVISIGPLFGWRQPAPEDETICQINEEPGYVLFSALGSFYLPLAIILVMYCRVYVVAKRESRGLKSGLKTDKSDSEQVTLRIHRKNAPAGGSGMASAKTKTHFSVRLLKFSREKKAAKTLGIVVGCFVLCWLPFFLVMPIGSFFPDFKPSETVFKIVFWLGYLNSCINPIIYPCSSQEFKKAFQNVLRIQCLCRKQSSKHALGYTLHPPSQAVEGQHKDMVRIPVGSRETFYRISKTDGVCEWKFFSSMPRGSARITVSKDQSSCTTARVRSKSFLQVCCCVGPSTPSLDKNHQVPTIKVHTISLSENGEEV
Description: as §1

In test [12] the target is Beta-1 adrenergic receptor (Homo sapiens, UniProt P08588).
Sequence of Beta-1 adrenergic receptor (P08588 whole entry): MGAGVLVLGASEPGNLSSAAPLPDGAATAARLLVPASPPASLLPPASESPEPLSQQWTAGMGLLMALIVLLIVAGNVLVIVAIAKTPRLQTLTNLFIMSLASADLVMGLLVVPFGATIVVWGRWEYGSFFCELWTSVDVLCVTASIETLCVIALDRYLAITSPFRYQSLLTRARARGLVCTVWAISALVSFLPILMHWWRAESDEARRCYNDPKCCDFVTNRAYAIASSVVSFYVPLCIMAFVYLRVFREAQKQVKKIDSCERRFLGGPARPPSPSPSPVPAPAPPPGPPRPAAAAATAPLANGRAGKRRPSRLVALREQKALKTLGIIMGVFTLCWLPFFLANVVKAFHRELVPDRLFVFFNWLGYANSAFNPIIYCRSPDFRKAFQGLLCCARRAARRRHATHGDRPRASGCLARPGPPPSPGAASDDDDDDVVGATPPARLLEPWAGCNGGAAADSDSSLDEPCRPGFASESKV
Description: as §1

The target in test [13] is 5-hydroxytryptamine receptor 6 (Homo sapiens, UniProt P50406).
Sequence of 5-hydroxytryptamine receptor 6 (P50406 whole entry): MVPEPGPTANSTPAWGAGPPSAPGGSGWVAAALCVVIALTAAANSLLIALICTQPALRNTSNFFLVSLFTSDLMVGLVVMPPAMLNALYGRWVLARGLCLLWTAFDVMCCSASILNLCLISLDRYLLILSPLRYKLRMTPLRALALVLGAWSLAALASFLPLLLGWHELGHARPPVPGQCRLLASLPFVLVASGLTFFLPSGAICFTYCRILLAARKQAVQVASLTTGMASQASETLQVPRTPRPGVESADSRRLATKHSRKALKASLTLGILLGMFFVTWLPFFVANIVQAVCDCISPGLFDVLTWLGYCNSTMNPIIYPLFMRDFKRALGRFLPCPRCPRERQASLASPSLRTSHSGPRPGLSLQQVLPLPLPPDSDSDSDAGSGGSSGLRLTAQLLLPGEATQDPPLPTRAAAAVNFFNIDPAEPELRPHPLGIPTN
Description: as §1

Test [14] has as its target 5-hydroxytryptamine receptor 2B (Homo sapiens, UniProt P41595).
Description: as §1

Sequence of Kappa-type opioid receptor (P41145 whole entry): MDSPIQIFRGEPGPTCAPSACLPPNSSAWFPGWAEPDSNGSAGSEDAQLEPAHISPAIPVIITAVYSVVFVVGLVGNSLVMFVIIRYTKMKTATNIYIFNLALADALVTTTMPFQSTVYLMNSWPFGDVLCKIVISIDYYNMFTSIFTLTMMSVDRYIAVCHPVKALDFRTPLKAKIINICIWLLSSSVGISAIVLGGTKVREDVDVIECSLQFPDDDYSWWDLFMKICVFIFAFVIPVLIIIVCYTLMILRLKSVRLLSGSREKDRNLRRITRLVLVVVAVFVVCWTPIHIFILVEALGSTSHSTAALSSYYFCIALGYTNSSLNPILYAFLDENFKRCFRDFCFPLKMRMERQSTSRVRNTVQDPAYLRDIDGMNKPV
Sequence of Sodium-dependent dopamine transporter (Q01959 whole entry): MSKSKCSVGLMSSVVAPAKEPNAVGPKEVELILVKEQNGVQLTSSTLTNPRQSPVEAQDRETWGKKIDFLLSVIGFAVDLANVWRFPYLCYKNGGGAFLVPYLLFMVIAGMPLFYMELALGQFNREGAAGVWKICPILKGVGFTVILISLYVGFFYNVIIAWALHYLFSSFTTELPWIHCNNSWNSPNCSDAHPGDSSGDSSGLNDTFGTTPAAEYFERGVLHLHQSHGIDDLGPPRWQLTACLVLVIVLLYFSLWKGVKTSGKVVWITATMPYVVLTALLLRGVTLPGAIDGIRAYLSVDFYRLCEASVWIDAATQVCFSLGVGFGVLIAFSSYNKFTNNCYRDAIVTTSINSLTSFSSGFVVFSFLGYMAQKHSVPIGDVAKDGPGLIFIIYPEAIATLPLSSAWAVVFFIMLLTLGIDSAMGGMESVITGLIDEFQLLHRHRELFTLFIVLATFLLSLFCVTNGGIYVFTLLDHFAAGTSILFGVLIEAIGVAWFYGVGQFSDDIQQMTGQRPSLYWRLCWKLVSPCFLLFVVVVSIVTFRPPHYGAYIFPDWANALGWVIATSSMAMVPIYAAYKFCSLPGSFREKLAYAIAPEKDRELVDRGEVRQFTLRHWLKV
Sequence of 5-hydroxytryptamine receptor 2B (P41595 whole entry): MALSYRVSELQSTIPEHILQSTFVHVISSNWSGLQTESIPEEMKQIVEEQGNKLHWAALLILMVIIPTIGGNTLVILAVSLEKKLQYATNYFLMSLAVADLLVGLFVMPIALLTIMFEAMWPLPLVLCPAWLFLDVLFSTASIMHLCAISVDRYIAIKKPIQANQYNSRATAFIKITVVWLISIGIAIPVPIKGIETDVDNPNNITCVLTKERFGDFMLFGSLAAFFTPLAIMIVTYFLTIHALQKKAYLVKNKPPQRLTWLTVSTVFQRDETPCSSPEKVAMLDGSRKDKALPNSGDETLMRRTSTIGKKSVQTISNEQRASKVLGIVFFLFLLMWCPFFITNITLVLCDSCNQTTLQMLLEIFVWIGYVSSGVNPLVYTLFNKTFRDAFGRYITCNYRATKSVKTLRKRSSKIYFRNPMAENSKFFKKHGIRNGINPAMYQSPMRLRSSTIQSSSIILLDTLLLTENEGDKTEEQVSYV
Sequence of 5-hydroxytryptamine receptor 1E (P28566 whole entry): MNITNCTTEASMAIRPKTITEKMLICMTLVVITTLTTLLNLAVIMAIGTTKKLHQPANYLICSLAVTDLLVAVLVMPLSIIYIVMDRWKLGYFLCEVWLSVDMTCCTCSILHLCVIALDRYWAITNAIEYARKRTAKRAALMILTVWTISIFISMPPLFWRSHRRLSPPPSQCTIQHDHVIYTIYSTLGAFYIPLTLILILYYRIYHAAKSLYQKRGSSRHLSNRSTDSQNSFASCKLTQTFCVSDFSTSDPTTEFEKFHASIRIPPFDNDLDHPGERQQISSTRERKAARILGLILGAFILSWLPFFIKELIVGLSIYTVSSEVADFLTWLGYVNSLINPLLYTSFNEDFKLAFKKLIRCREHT
Sequence of 5-hydroxytryptamine receptor 2A (P28223 whole entry): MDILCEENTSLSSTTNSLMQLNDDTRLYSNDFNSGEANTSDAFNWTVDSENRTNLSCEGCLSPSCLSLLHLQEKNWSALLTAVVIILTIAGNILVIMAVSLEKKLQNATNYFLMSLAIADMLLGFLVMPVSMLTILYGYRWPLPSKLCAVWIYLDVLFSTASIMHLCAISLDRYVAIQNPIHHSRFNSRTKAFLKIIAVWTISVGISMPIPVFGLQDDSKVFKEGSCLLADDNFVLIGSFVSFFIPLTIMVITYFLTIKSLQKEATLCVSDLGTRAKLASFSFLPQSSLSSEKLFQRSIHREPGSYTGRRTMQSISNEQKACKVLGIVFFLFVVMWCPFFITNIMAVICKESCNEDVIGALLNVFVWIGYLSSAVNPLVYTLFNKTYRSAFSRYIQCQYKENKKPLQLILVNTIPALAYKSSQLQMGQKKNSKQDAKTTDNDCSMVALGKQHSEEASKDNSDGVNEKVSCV

One may read the Ki as the equilibrium dissociation constant of an inhibitor or competing ligand from its target. Read a low Ki as a stronger hold on the target. With `CC(N)Cc1ccc2c(c1)OCO2` (configuration not stated), the Ki in [1] is more than 10 µM; in test [2], more than 10 µM; in test [3], 1.66 µM; in test [4], more than 10 µM; in [5], more than 10 µM; in test [6] it was 3.76 µM. For the same compound, the Ki in [7], in [8], in test [9], in test [10], in test [11] and in [12] was more than 10 µM in each case. Further, the Ki is more than 10 µM in test [13] and 0.091 µM in test [14].

Take `CCOc1cc(OC)c(CC(C)N)cc1OC` (configuration not stated): the Ki is more than 10 µM in [1]; 3.95 µM in [2]; more than 10 µM in test [3]; more than 10 µM in test [4]; more than 10 µM in test [5]; more than 10 µM in test [6]. The Ki in test [7], in test [8], in test [9], in test [10], in [11] and in test [12] was more than 10 µM in each case. The Ki in [13] is more than 10 µM; in [14], 0.0645 µM.

Regarding `COc1cc(CC(C)N)cc(OC)c1OC` (configuration not stated), the Ki in test [1] was 3.37 µM; in test [2], more than 10 µM; in test [3] it was 2.07 µM; in test [4] it was more than 10 µM; in test [5] it was more than 10 µM; in test [6], 1.68 µM. Besides, the inhibition constant Ki in [7], in [8], in [9], in test [10], in test [11] and in [12] was more than 10 µM each time. Besides, the inhibition constant Ki is more than 10 µM in [13] and 0.477 µM in test [14].

Turning to `CCc1cc(OC)c(CC(C)N)cc1OC` (configuration not stated), the Ki in test [1] was 3.55 µM; in test [2] it was 0.0273 µM; in [3] it was 1.28 µM; in [4], more than 10 µM; in test [5], more than 10 µM; in test [6], 0.0144 µM. Further, the Ki was more than 10 µM in test [7]; more than 10 µM in test [8]; more than 10 µM in test [9]; more than 10 µM in test [10]; more than 10 µM in test [11]; 5.72 µM in test [12]. Also, the Ki was more than 10 µM in test [13] and 0.0288 µM in test [14].

`CCc1cc(OC)c(CCN)cc1OC` [2-(2,5-dimethoxy-4-ethylphenyl)ethylamine]: the Ki in [1] was 0.626 µM; in [2], 0.0439 µM; in test [3], 0.49 µM; in test [4], more than 10 µM; in test [5] it was more than 10 µM; in [7], 1.73 µM. Moreover, the Ki in test [8] was more than 10 µM; in test [9] it was more than 10 µM; in test [10], more than 10 µM; in [11], more than 10 µM; in [12] it was more than 10 µM; in test [13], 2.97 µM. In test [14], this compound came in with a Ki of 0.0251 µM.

As to `COc1cc(CC(C)N)c(OC)cc1Br` (stereo not drawn) [2-(4-Bromo-2,5-dimethoxy-phenyl)-1-methyl-ethylamine((-)-DOB)], the Ki in [1] is 1.43 µM; in [3] it was 4.27 µM; in [4], more than 10 µM; in test [5] it was more than 10 µM; in [6], 2.55 µM; in test [7], more than 10 µM. In addition, the inhibitory constant (Ki) in test [8] is more than 10 µM; in test [9] it was more than 10 µM; in test [10], more than 10 µM; in test [11] it was more than 10 µM; in test [12], 2.42 µM; in test [13], 5.53 µM. In test [14], this compound gave a Ki of 0.0039 µM.

Take `CCSc1cc(OC)c(CC(C)N)cc1OC` (configuration not stated) [2-(4-Ethylsulfanyl-2,5-dimethoxy-phenyl)-1-methyl-ethylamine]: the Ki in test [2] was 0.0604 µM; in test [3], 5.8 µM; in [4], more than 10 µM; in test [5], more than 10 µM; in [6] it was 1.67 µM; in [7], 8.02 µM. Moreover, the Ki in test [8] was more than 10 µM; in test [9], more than 10 µM; in [10] it was more than 10 µM; in test [11], more than 10 µM; in test [12], 6.79 µM; in test [14] it was 0.0016 µM.

As to `COc1ccc2[nH]cc(CCN(C(C)C)C(C)C)c2c1` [5-meo-dipt], the Ki was more than 10 µM in [1]; more than 10 µM in test [3]; more than 10 µM in test [4]; more than 10 µM in [5]; 0.132 µM in test [6]; more than 10 µM in test [7]. In addition, the inhibition constant (Ki) in test [8], in test [9], in test [10], in [11], in test [12] and in test [13] was more than 10 µM each time. The compound further returned a Ki in test [14] of 0.163 µM.

`CN(C)CCc1c[nH]c2cc(F)ccc12` [6-f-dmt]: the Ki in [1] is 0.461 µM; in [3], more than 10 µM; in [4], 0.925 µM; in [5] it was more than 10 µM; in test [6] it was 0.393 µM; in [7] it was more than 10 µM. In addition, the Ki in [8] is 0.547 µM; in test [9], more than 10 µM; in [10], more than 10 µM; in test [11], 0.173 µM; in test [12], more than 10 µM; in test [13], 0.0256 µM. Besides, the Ki in test [14] was determined as 0.0298 µM.

On to `COc1cc(OC)c(OC)cc1CC(C)N` (stereo not drawn) [(+/-)1-Methyl-2-(2,4,5-trimethoxy-phenyl)-ethylamine], for which the Ki is more than 10 µM in [1]; 0.584 µM in test [2]; more than 10 µM in test [3]; more than 10 µM in test [4]; more than 10 µM in test [6]; more than 10 µM in test [7]. Moreover, the Ki was more than 10 µM in test [8]; more than 10 µM in test [9]; more than 10 µM in test [11]; more than 10 µM in [12]; more than 10 µM in [13]; 0.154 µM in [14].
